# Measurements published in patent US20210128414A1, “SELF-ASSEMBLED NANOSTRUCTURES AND COMPOSITE MATERIALS USABLE IN DENTAL APPLICATIONS CONTAINING SAME” (Ramot at Tel-Aviv University Ltd., priority 2018, published 2021).
# Key:
# S. mutans [1] = test: Minimum inhibitory concentration and kinetic growth inhibition analysis of nanostructures; type: cell-based, Streptococcus mutans
# Experimental: The antibacterial capabilities of the obtained nanostructures were evaluated against S. mutans via a minimum inhibitory concentration (MIC) analysis and by kinetic growth inhibition analysis, as follows. S. mutans bacteria were grown under anaerobic conditions in brain heart infusion (BHI) medium (BD Difco) for 48 hours and then diluted to OD600 of 0.01 or 0.25 in BHI. Nanostructures samples, at an initial concentration of 8 mM, were added to the bacterial samples in 96-well plates in serial 2-fold dilutions, which were sealed to ensure anaerobic conditions. Kinetic growth inhibition was determined by optical density measurements (650 nm) using a Biotek Synergy HT microplate reader. The minimum inhibitory concentration (MIC) was determined using the microdilution assay, and evaluation of the reduction in colony-forming units was obtained by plating and counting bacterial samples before and after overnight treatment. […] The ability of the nanostructures to inhibit bacterial growth at a higher bacterial load, similar to that of an active infection was also tested. S. mutans cultures were grown until mid-log phase and were then treated with 2 mM samples of the nanostructures.
# S. mutans [2] = test: Live/Dead (Syto9/Propidium iodide) bacterial viability analysis of nanostructure-treated bacteria; type: cell-based, Streptococcus mutans; details: after kinetic analysis with nanostructures
# Experimental: To directly assess bacterial viability, the bacteria were subjected to Live/Dead viability analysis containing Syto9 (indicating live bacteria) and Propidium iodide (PI) (indicating dead bacteria). Following kinetic analysis, the samples were washed thrice with saline, incubated for 15 minutes in a solution containing Syto9 and Propidium iodide (L13152 LIVE/DEAD BacLight Bacterial Viability Kit, Molecular Probes, OR), and washed with saline again. Fluorescence emission was detected using an ECLIPSE E600 fluorescent microscope (Nikon, Japan).
# S. mutans [3] = test: Bacterial morphology by high-resolution scanning electron microscopy; type: cell-based, Streptococcus mutans; details: overnight treatment with nanostructures
# Experimental: The effect of Fmoc-F5-Phe nanostructures on bacterial morphology was studied using High-Resolution Scanning Electron Microscopy as follows.
# Bacterial samples were centrifuged at 5000 rpm for 5 minutes, washed thrice in PBS, and fixed in 2.5% glutaraldehyde in PBS for 1 hour. The samples were then washed thrice in PBS and fixed in 1% OsO4 in PBS for 1 hour, followed by a dehydration series with ethanol. The samples were then left in absolute ethanol for 30 minutes and placed onto glass coverslips, followed by critical point drying and coating with gold. Micrographs were recorded using a JEOL JSM-6700F FE-SEM scanning electron microscope operating at 10 kV. The obtained micrographs shown in FIG. 1I are representative of three independent experiments.
# S. mutans [4] = test: SYTOX Blue membrane permeation assay; type: cell-based, Streptococcus mutans; details: nanostructures, 3 hours incubation at 37° C.
# Experimental: The effect of Fmoc-F5-Phe nanostructures on bacterial membrane permeation was also supported by a SYTOX Blue membrane permeation assay. SYTOX Blue is a cationic dye that cannot enter an intact cell unless its membrane is disrupted by external compounds. Inside the cell, SYTOX Blue stain binds to intracellular nucleic acids and fluoresces bright blue when excited with 405 nm violet laser light.
# S. mutans bacteria were grown under anaerobic conditions in BHI medium (BD Difco) for 48 hours and diluted to 0.1 OD600. Fmoc-F5-Phe or ultrapure water (100 μL) as control was added to 300 μL of bacteria and incubated for 3 hours in 37° C. The bacterial cells were centrifuged for 5 minutes at 3700 rpm and incubated with 1 μM SYTOX blue (Thermo Fisher Scientific) for 30 minutes at 37° C. The samples were washed three times in PBS and examined by confocal microscopy LSM 510, excited at 405 nm (Zeiss, Germany).
# [5] = Shear-Punch Strength Test of nanostructure-incorporated resin composite restorative; type: physicochemical
# Experimental: The effect of the incorporation of peptide nanostructures in the polymerized dental resin composite restorative on the structural integrity of the resin composite restorative was tested. A Shear-Punch Test was carried out on samples incorporating varying weight ratios of Fmoc-Pentafluoro-Phe.
# A Shear-Punch Strength Test was performed according to Mount et al., Aust. Dent. 1996; J 41: 116-23. Shear Punch Strength Test. Briefly, a composition comprising the nanostructures dispersed in a pre-polymerized resin composite restorative was placed in 0.8 mm thick wash holders and light-cured to form flat parallel surfaces evenly supported and restrained by the holder. The samples were then placed in an Instron device (model 4502) for punching under a crosshead speed of 0.5 mm per minute. The maximum force applied (Fmax) was calculated as the mean of 10 different samples for each w/w % concentration of the tested nanostructure. Statistical analysis was carried out via one-way analysis of variance and Dunnett's post hoc test.
# [6] = Diametral Tensile Strength (DTS) test; type: physicochemical; details: 2% w/w nanostructures in Filtek composite; p>0.155
# Experimental: Diametral Tensile Strength (DTS) Test was further performed to verify the difference in tensile properties (tensile strength and stiffness of the specimens characterizing the elasticity of the materials) of the 2% amalgamated material compared to the control (0%), as follows.
# Disks (6 mm in diameter, 3 mm in height) of either control resin composite restorative or 2% nanoassembly-incorporated resin composite restorative were prepared in a Teflon mold similar to the specimens used for the punch shear strength. Specimens were loaded up to failure. The linear slope during loading was calculated, indicating the stiffness of the specimen, and the DTS was calculated by: […]
# where P is the load at failure (N), D is the specimen diameter (mm), and t is the specimen height (mm).
# The specimens were loaded via the above-mentioned loading machine using the same crosshead speed. Statistical analysis was carried out via T-test.
# [7] = HPLC-based nanostructures release evaluation in sterile saliva; type: physicochemical; details: 37° C., 2% w/w composite
# Experimental: Restorative composites incorporating 4 mg of the Fmoc-F5-Phe nanostructures to a final w/w % of 2% were examined following 24, 48 and 72 hours of incubation at 37° C. in sterile saliva.
# [8] = Occlusal fissure stability and optical property analyses; type: physicochemical; details: 2% w/w composite
# Experimental: Occlusal Fissure Stability and Optical Property Analyses were also performed as follows.
# Occlusal fissures were made via a diamond bur and then restored utilizing either the 2% nanostructure-containing restorative composites or a control (0%) restorative. The samples were contained for 30 days at 37° C. in sterile PBS. A Spectroshade Micro-MHT dental spectrophotometer normalized to the Vita classical color guide was then utilized to evaluate the color of the tested samples.
# S. mutans [9] = test: Direct-contact kinetic analysis (direct-contact test) of polymerized composite materials; type: cell-based, Streptococcus mutans; details: 1 hour direct contact
# Experimental: In order to evaluate the antimicrobial capabilities of the resin composite restoratives while simulating its clinical use, a direct-contact test (DCT) was carried out. This spectroscopic microplate reader based test, designed for compounds that are non-diffusible and non-soluble in water, allows measuring the effect of direct contact between the evaluated material and bacterial viability and growth. Four different W/W % samples of the resin composite material were evaluated at 0.25, 0.5, 1 and 2% Fmoc-F5-Phe nano-structure concentrations, and Filtek™ Ultimate Flow with no Fmoc-F5-Phe nano-structures additives, treated in the same manner, served as a control. Streptococcus mutans (S. mutans) was chosen for this evaluation as this strain is commonly found in the human oral cavity and is a significant caries-causing pathogen. Following direct contact of S. mutans bacteria with the Fmoc-F5-Phe incorporated materials the subsequent proliferation of the bacteria, was evaluated by optical density measurements over eighteen hours.
# This analysis was carried out as described in Weiss et al. Endod. Dent. Traumatol. 12, 179-84 (1996), with slight modification.
# S. mutans bacteria were grown in anaerobic conditions in BHI media for 48 hours and then diluted to an OD600 of 0.6 in BHI. […] were deposited onto inserts (concaved plastic surfaces designed to be suspended in the wells of 96 well-plates) coated on one side with each of the nano-assembly incorporated resin composite restoratives (four different W/W % samples of the resin composite material were evaluated at 0.25, 0.5, 1 and 2% concentrations of each nanostructure) and then incubated for one hour at 37° C. Following incubation […] was added to each well so that the inserts were submerged in the BHI and the plates were sealed to ensure anaerobic conditions. Kinetic growth inhibition was determined by optical density measurements (650 nm) using a Biotek Synergy HT microplate reader.
# S. mutans [10] = test: Live/Dead viability analysis after contact with composite restoratives; type: cell-based, Streptococcus mutans
# Experimental: To directly assess bacterial viability, treated and control bacteria were subjected to Live/Dead viability analysis, using the Live/Dead backlight bacterial viability kit and accompanying instructions, as follows. S. mutans bacteria were grown in anaerobic conditions in BHI media for 48 hours and then diluted to an OD600 of 0.6 in BHI. 100 μl of these samples were deposited onto inserts coated on one side with each of the polymeric matrices and then incubated for one hour at 37 degrees. Following incubation […] was added to each well and the plates were sealed to ensure anaerobic conditions. At each time point (initial incubation, 1 hour and 24 hours) samples were taken and washed with saline, incubated for 15 minutes in a solution containing Propidium iodide and Syto9 (L13152 LIVE/DEAD® BacLight™ Bacterial Viability Kit, Molecular Probes, OR, USA) and washed with saline again. Fluorescence emission was detected using an ECLIPSE E600 (Nikon, Japan).
# 3T3 fibroblasts = test: MTT cell viability analysis of composite restoratives; type: cell-based; details: nanostructure-incorporated composite versus composite alone; 18 hours, 37° C.
# Experimental: (§1) The effect of the incorporation of Fmoc-F5-Phe on the cytotoxicity of the dental composite restoratives was tested. This was carried out by evaluating the effect of each amalgamated composite restorative (containing self-assembled nanostructures as described herein) on the viability of two cell lines; HeLa and 3T3 fibroblasts, using MTT analysis, as follows.
# (§2) The 3T3 fibroblast cells and HeLa cells grown in Dulbecco's Modified Eagle's Medium (DMEM) supplemented with 10% fetal calf serum (FBS) (Biological Industries, Israel) were sub-cultured (2×10^5 cells/mL) in 96-well tissue microplates (100 μl per well) and were allowed to adhere overnight at 37° C. Inserts (in quadruplet) coated on one side with each of the nano-assembly incorporated resin composite restoratives were placed into the wells containing the adhered cells. After incubation for 18 hours at 37° C., cell viability was evaluated using the 3-(4,5-dimethylthiazolyl-2)-2,5-diphenyltetrazolium bromide (MTT) assay. Briefly, 10 μL of 5 mg/mL MTT dissolved in PBS was added to each well. After 4 hours incubation at 37° C., 100 μl of the extraction buffer [20% SDS dissolved in a solution of 50% dimethylformamide and 50% DDW (pH 4.7)] were added to each well, and the plates were incubated again at 37° C. for 30 minutes. Finally, color intensity was measured using an ELISA reader at 570 nm. […]
# HeLa cells = test: as above; type: cell-based; details: nanostructure-incorporated composite versus composite alone; 18 hours, 37° C.
# Experimental: as §1, §2
# [11] = 0.25-1% w/w nanostructures in Filtek composite
# [12] = 2% w/w nanostructures in Filtek composite
smiles,measurement,setting,value
"O=C(NC(Cc1c(F)c(F)c(F)c(F)c1F)C(=O)O)OCC1c2ccccc2-c2ccccc21 (stereo not drawn) [Fmoc-F5-Phe, Fmoc-Pentafluorophenylalanline]",bacterial growth inhibition at higher bacterial load,S. mutans [1]; 2 mM nanostructures added to mid-log phase cultures,inhibited bacterial proliferation
same,reduction in colony-forming units,"S. mutans [1]; nanostructures at 2 mM, overnight, early log phase cultures",7.2 log(10) CFU/mL
same,bacterial growth inhibition at lower concentrations,"S. mutans [1]; nanostructures below 2 mM, overnight",partially inhibiting growth in a dose-dependent manner
same,concentration at which overnight incubation completely inhibited bacterial growth (MIC analysis),"S. mutans [1]; self-assembled nanostructures, cultures started at early log phase, overnight",2000 µM
same,bacterial viability (Live/Dead),S. mutans [2],significant bacterial cell death
same,effect on bacterial morphology,S. mutans [3],"membrane fusing, clumping, and disintegration were abundant"
same,bacteria stained with SYTOX Blue (membrane permeation),S. mutans [4],about 90%
same,Fmax versus control (0%),"[5]; 0.25%, 0.5% and 1% w/w nanostructures in Filtek composite, p≥0.144",no statistically significant difference
same,"Fmax, inferior to control (0%) by","[5]; 2% w/w nanostructures in Filtek composite, p=0.011",9%
same,effect on stiffness of the specimen,"[5]; nanostructures in Filtek composite, data not shown",no substantial effect
same,diametral tensile strength and stiffness versus control (0%),[6],No statistically significant differences
same,amount of nanostructures released,"[7]; 24 hours, 4 mg nanostructures",0.9520 micrograms
same,released fraction of initial amount of incorporated nanostructures,[7]; 24 hours,less than 0.024%
same,amount of nanostructures released,[7]; 48 hours,0.1805 micrograms
same,released fraction of incorporated nanostructures,[7]; 48 hours,below 0.0046%
same,amount of nanostructures released,[7]; 72 hours,0.1088 micrograms
same,stability of occlusal fissure restorations,[8]; 30-day incubation at 37° C. in sterile PBS,remained intact and stable
same,color (Vita shade) versus control,[8]; Spectroshade Micro-MHT spectrophotometer,same Vita shade
same,bacterial growth inhibition,S. mutans [9]; [11],partially inhibit bacterial growth in a dose dependent manner
same,bacterial growth inhibition,S. mutans [9]; [12],over 95%
same,bacterial viability (Live/Dead),S. mutans [10]; [12],bacterial cell death
same,"bacterial viability (Live/Dead), persistence of effect","S. mutans [10]; composite with nanostructures, 24 hours",persisted
same,bacterial viability (Live/Dead),"S. mutans [10]; composite with nanostructures, one hour of treatment, versus Filtek alone",large scale bacterial death
same,effect of incorporation on cell viability (MTT),3T3 fibroblasts,did not change the effect
same,effect of incorporation on cell viability (MTT),HeLa cells,did not change the effect
"O=C(N[C@@H](Cc1ccccc1)C(=O)O)OCC1c2ccccc2-c2ccccc21 [Fmoc-Phe, Fmoc-phenylalanine]",bacterial growth inhibition,S. mutans [9]; [11],inhibited growth in a dose-dependent manner
same,bacterial growth inhibition,S. mutans [9]; [12],60%
